Experimental data taken from patent publication US20250099356A1, “PERSONAL CARE COMPOSITION WITH N-CAPRYLOYL L-GLUTAMINE AND GLYCERYL MONOUNDECYLENATE AS PRESERVATIVE” (GALAXY SURFACTANTS LTD., priority 2024, published 2025).

Experiments:
bacteria, yeast and mold = experiment: Challenge test (preservation efficacy) in cleansing surfactant composition of Table 2a; format: cell-based; settings: for challenge test / preservation efficacy test: 1.5% level in the same formulation, pH 5.5 and 7.0
Text: In an embodiment several personal care compositions of various types have been tested for the preservation efficacy of the combination of N-capryloyl L-glutamine and glyceryl monoundecylenate using PCPC (Personal Care Products Council, Washington DC, formerly known as CTFA) protocol ('Evaluation of preservatives to protect cosmetics' by D. Orth in Cosmetics and Toiletries, March 91). […] Both ‘rinse-off’ and ‘leave-on’ formulations (Examples 5 to 10) passed the challenge tests. Using the typical surfactant composition two sets are prepared at different pHs, 5.5 and 7.0. Antimicrobials individually and in combination are tested for preservation efficacy. [table]

Malassezia yeast = experiment: Minimum inhibitory concentration, Malassezia yeast; format: cell-based; settings: species not given
Description: (§1) The MIC (minimum inhibitory concentrations) of N-capryloyl L-glutamine and glyceryl monoundecylenate and 1:1 mixture (by weight) of the two antimicrobials against various microbes are determined as per PCPC (Personal Care Product Council, Washington, USA) protocol.

[1] = tested on: Staphylococcus hominis MTCC 8980; experiment: Minimum inhibitory concentration (PCPC protocol); format: cell-based; settings: Gram positive
Description: as §1

[2] = tested on: Staphylococcus aureus ATCC 6538; experiment: Minimum inhibitory concentration (PCPC protocol); format: cell-based; settings: Gram positive; b76: at skin pH of 5.5
Description: as §1

[3] = tested on: Candida glabrata ATCC 66032; experiment: Minimum inhibitory concentration (PCPC protocol); format: cell-based; settings: Yeast
Description: as §1

[4] = tested on: Malassezia restricta ATCC MYA 4611; experiment: Minimum inhibitory concentration (PCPC protocol); format: cell-based; settings: Yeast
Description: as §1

[5] = tested on: Malassezia furfur ATCC 14521; experiment: Minimum inhibitory concentration (PCPC protocol); format: cell-based; settings: Yeast
Description: as §1

[6] = tested on: Burkholderia cepacia ATCC 25416; experiment: Minimum inhibitory concentration (PCPC protocol); format: cell-based; settings: Gram negative
Description: as §1

[7] = tested on: Micrococcus luteus NCIM 2103; experiment: Minimum inhibitory concentration (PCPC protocol); format: cell-based; settings: Gram positive
Description: as §1

[8] = tested on: Corynebacterium xerosis ATCC 373; experiment: Minimum inhibitory concentration (PCPC protocol); format: cell-based; settings: Gram positive
Description: as §1

[9] = tested on: Staphylococcus epidermidis NCIM 2493; experiment: Minimum inhibitory concentration (PCPC protocol); format: cell-based; settings: Gram positive, b76: at skin pH of 5.5
Description: as §1

[10] = tested on: Aspergillus niger ATCC 16404; experiment: Minimum inhibitory concentration (PCPC protocol); format: cell-based; settings: Mold
Description: as §1

[11] = tested on: Gardnerella vaginalis ATCC 14018; experiment: Minimum inhibitory concentration (PCPC protocol); format: cell-based; settings: Gram variable
Description: as §1

[12] = tested on: Cutibacterium acnes ATCC 6919; experiment: Minimum inhibitory concentration (PCPC protocol); format: cell-based; settings: Gram positive
Description: as §1

[13] = tested on: Escherichia coli ATCC 8739; experiment: Minimum inhibitory concentration (PCPC protocol); format: cell-based; settings: Gram negative
Description: as §1

[14] = tested on: Candida albicans ATCC 10231; experiment: Minimum inhibitory concentration (PCPC protocol); format: cell-based; settings: Yeast
Description: as §1

[15] = tested on: Pseudomonas aeruginosa ATCC 15442; experiment: Minimum inhibitory concentration (PCPC protocol); format: cell-based; settings: Gram negative
Description: as §1

[16] = Biodegradability, OECD 301D-Closed Bottle Test
Text: N-capryloyl L-glutamine and glyceryl monoundecylenate, derived from renewable sources, are compatible with most used ingredients of the personal care compositions.

[17] = antimicrobial 1.5% in total in cleansing formulation of Table 2a, pH 5.5
[18] = antimicrobial 1.5% in total in cleansing formulation of Table 2a, pH 7.0
[19] = antimicrobial 2.0% in cleansing formulation of Table 2a, pH 5.5
[20] = antimicrobial 2.0% in total in cleansing formulation of Table 2a, pH 7.0
[21] = deployed alone at 2% in the surfactant composition, at both acidic and neutral pH (5.5 and 7.0)

SMILES	challenge test / preservation efficacy test (bacteria, yeast and mold)	Challenge Test (bacteria, yeast and mold; [17])	Challenge Test (bacteria, yeast and mold; [18])	Challenge Test (bacteria, yeast and mold; [19])	Challenge Test (bacteria, yeast and mold; [20])	Challenge Test (bacteria, yeast and mold; [21])	MIC against Malassezia yeast (Malassezia yeast) [%]	MIC in % Staphylococcus hominis MTCC 8980 [1] [%]	MIC in % Staphylococcus aureus ATCC 6538 [2] [%]	MIC in % Candida glabrata ATCC 66032 [3] [%]	MIC in % Malassezia restricta ATCC MYA 4611 [4] [%]	MIC in % Malassezia furfur ATCC 14521 [5] [%]	MIC in % Burkholderia cepacia ATCC 25416 [6] [%]	MIC in % Micrococcus luteus NCIM 2103 [7] [%]	MIC in % Corynebacterium xerosis ATCC 373 [8] [%]	MIC in % Staphylococcus epidermidis NCIM 2493 [9] [%]	MIC in % Aspergillus niger ATCC 16404 [10] [%]	MIC in % Gardnerella vaginalis ATCC 14018 [11] [%]	MIC in % Cutibacterium acnes ATCC 6919 [12] [%]	MIC in % Escherichia coli ATCC 8739 [13] [%]	also measured
CCCCCCCC(=O)N[C@@H](CCC(N)=O)C(=O)O [CG, N-capryloyl L-glutamine]	fail to pass the challenge test	Passes	Fails	Passes	Passes	preserve the composition	0.2	0.6	0.3	0.6	0.4	0.3	1	0.5	0.5	0.9	1	0.6	0.2	0.7	MIC in % Staphylococcus epidermidis NCIM 2493 ([9]; listed as N-capryloyl L-glutamine): 1.0%; MIC in % Candida albicans ATCC 10231 [14]: 0.6%; MIC in % Pseudomonas aeruginosa ATCC 15442 [15]: 0.7%; biodegradability as per OECD 301D-Closed Bottle Test [16]: completely biodegradable
C=CCCCCCCCCC(=O)OCC(O)CO (stereo not shown) [GMU, glyceryl monoundecylenate]	fail to pass the challenge test	Fails	Fails	Passes	Passes	preserve the composition	0.2	0.7	0.1	0.4	0.2	0.2	1	0.5	0.5	1	0.8	0.3	0.9	1	MIC in % Staphylococcus epidermidis NCIM 2493 ([9]; listed as glyceryl mono undecylenate): 1.0%; MIC in % Staphylococcus epidermidis NCIM 2493 ([9]; listed as glyceryl monoundecylenate): 0.9%; MIC in % Candida albicans ATCC 10231 [14]: 1%; MIC in % Pseudomonas aeruginosa ATCC 15442 [15]: 1%; biodegradability as per OECD 301D-Closed Bottle Test [16]: completely biodegradable
